Measured values from paper PMC6842052 (The Journal of pharmacy and pharmacology, 2019).

Tests used:
[1] = Pharmacokinetic study of URB937 in rats; format: in vivo, rat
[2] = test system: OEA levels (biomarker of FAAH activity); assay: OEA levels in liver and plasma after oral URB937; format: in vivo; conditions: rat, oral 0.3, 1, 3, 10 mg/kg, one hour
[3] = test system: male and female rats; assay: Acute toxicity study; format: in vivo, rat
[4] = ref unpublished results; cited from earlier work
[5] = test system: human potassium hERG channel; conditions: ref unpublished results; cited from earlier work
[6] = test system: male and female rats; assay: Subchronic toxicity study
[7] = male Sprague Dawley rats, 3 mg/kg oral
[8] = male and female rats, single oral 100, 300, 1000 mg/kg
[9] = male rats, single oral 300 mg/kg, 7 days
[10] = male and female rats, 100, 300, 1000 mg/kg oral for 14 days

## NC(=O)c1cccc(-c2cc(OC(=O)NC3CCCCC3)ccc2O)c1 [URB937]
[1]; [7]
  AUCplasma, area under the curve: 656.2 ng·h/mL
  Tmax, time at which Cmax is reached: 1 h
  Vd, distribution volume: 17.9 L
[1]; male Sprague Dawley rats, 3 mg/kg oral vs intravenous
  F, oral bioavailability: 36%
[1]; male Sprague Dawley rats, 3 mg/kg oral, noncompartmental model
  Cl, clearance: 76.64 mL/min
[1]; male Sprague Dawley rats, 3 mg/kg oral, plasma
  Cmax, maximal plasma concentration: 159.47 ng/mL
[1]; male Sprague Dawley rats, 3 mg/kg oral, 3 mg/kg
  t1/2, terminal half-life: 2.702 h
[1]; male rats, 3 mg/kg oral
  t1/2 (cleared from circulation): approximately 3 h
[1]; male rats, 3 mg/kg oral, below limit of detection (LOD 50 pg/ml, LOQ 300 pg/ml)
  brain levels of URB937: < 0.05 ng/mL
[1]; rats, oral 0.3 to 100 mg/kg, 1 h after treatment
  plasma levels of URB937 in dose-escalation study: increased linearly in the dose range of 0.3 to 10 mg/kg and reached saturation between 30 mg/kg and 100 mg/kg
[2]
  OEA levels in liver: dose-dependent elevation
  OEA levels in plasma: dose-dependent elevation
[3]; female rats, single oral 100 mg/kg, 7 days
  food intake: small, but significant increase
[3]; female rats, single oral 1000 mg/kg, 7 days
  water consumption: larger increment
[3]; male and female rats, acute oral administration of supramaximal doses
  tolerability: well tolerated
[3]; [8]
  hematology and blood chemistry screens: no significant alterations
  macroscopic examination at necropsy and microscopic histopathology: did not reveal any abnormality
  mortality: None of the animals died
[3]; [9]
  cumulative food intake: reduced
  cumulative water intake: reduced
[4]
  genotoxic effects in the Ames' test: does not exert genotoxic effects
[5]
  inhibition of the human potassium hERG channel: does not inhibit
[6]; female rats, 300 mg/kg oral once daily for 14 days
  food intake: small increase
[6]; [10]
  macroscopic examination at necropsy and microscopic histopathology: did not reveal any abnormality
  mortality: None of the animals died
[6]; male and female rats, subchronic (2 weeks) oral administration of supramaximal doses
  tolerability: well tolerated
[6]; male rats only, 14-day oral administration
  plasma glucose levels: increase
